Laboratory results: patent US20110046101A1, “BATE-LACTAMASE INHIBITORS” (priority 2008, published 2011)
Where “and” joins values, the source holds several entries; their conditions need not be identical. Equal entries are not always repeated. Where two headings read alike, the source gives them in different places.

Columns and labels:
IMP-1 = biological target: T1, IMP-1 (Serratia marcescens, UniProt P52699); test: biochemical; details: for IC50: IC50 (μM) class B IMP-1, nitrocefin 100 μM, 50 mM Hepes pH 7.3
T1 construct: made in house; host or cells: E. coli (pCIP4 plasmid from Dr. M. Galleni)
Experimental: (§1) Compounds of the present application were evaluated as inhibitors of two Class B β-lactamases (IMP-1 and VIM-2) and two Class D β-lactamases OXA-10 and OXA-45).
IMP-1 was overexpressed in E. coli using the pCIP4 plasmid encoding IMP-1 which was obtained from Dr. M. Galleni, Université de Liège, B-4000 Liege, Belgium, and was purified as described by Laraki, N. et al., Antimicrob. Agents Chemother. 1999 43, 902-906.
(§2) Two methods were used for measurement of β-lactamase activity, based on the use of the substrate nitrocefin. The first was carried out in a cuvette (final volume 1 ml, 25° C.) with the aid of a Cary 5 spectrophotometer, and second was with the use of a Molecular Devices Spectramax 190 96 well plate reader (final volume 100 μl, 30° C.).
(§3) All assays were performed in the appropriate buffer for the enzyme: (i) IMP-1, VIM-2: 50 mM Hepes pH 7.3, 1 μg/ml BSA, 1 μM ZnSO4; (ii) OXA-45: 100 mM Na Phosphate/25 mM NaCO3 pH 7.0, 1 μg/ml BSA; and (iii) OXA-10: 100 mM Na Phosphate/25 mM NaCO3 pH 7.0. Enzyme concentrations were chosen so that a reasonable rate of reaction was observed. Inhibitors were dissolved in DMSO, with the final concentration of DMSO in the assay being 1%. Nitrocefin was dissolved in DMSO and diluted in 50 mM Hepes pH 7.3 with the final concentration in the assay being 100 μM. The enzyme was allowed to react with the inhibitor for a predetermined time followed by addition of substrate to initiate the reaction, which was monitored for an increase in absorbance at 482 nm. IC50 values were determined by plotting percent loss of initial activity vs log inhibitor concentration. Controls were run to ensure that there was minimal loss of activity with DMSO (<10%). When inhibition by DMSO was noted, 0.5 M NaCl was added to stabilize the enzyme.

VIM-2 = biological target: T2, VIM-2 (Escherichia coli, UniProt Q5U7L7); test: biochemical; format: biochemical
T2 construct: made in house; host or cells: E. coli DH10B (pNOR,2001 plasmid from Dr. P. Nordmann)
Experimental: as §1
VIM-2 was overexpressed in E. coli (DH10B) containing the pNOR,2001 plasmid, encoding VIM-2, which was provided by Dr. P. Nordmann, Universite de Paris, and was purified as described by Poirel et al., Antimicrob. Agents Chemother. 2000, 44, 891-897.
as §2, §3

OXA-10 = biological target: T3, OXA-10 (Pseudomonas aeruginosa, UniProt P14489); test: biochemical; format: biochemical
T3 construct: made in house; host or cells: E. coli (pEt24a(+) plasmid from Dr. S. Mobashery)
Experimental: as §1
OXA-10 was overexpressed in E. coli using the pEt24a(+) plasmid, encoding OXA-10, which was provided by Dr. S. Mobashery, University of Notre Dame, and was purified as described by Golemi et al., J. Am. Chem. Soc. 2000, 122, 6132-6133.
as §2, §3

OXA-45 = OXA-45 (Pseudomonas aeruginosa, UniProt Q7WZC7); test: β-lactamase inhibition assay with nitrocefin substrate, OXA-45; format: biochemical
Experimental: as §1
OXA-45 was a gift from Dr. J. Spencer, University of Bristol, and had been prepared and purified as described by Toleman, M. A. et al., Antimicrob. Agents Chemother. 2003, 47, 2859-2863.
as §2, §3

[1] = system: Pseudomonas aeruginosa strain 81-11963 (produces metallo β-lactamase VIM-2); test: Agar dilution MIC, synergy with pipericillin, P. aeruginosa; format: cell-based; details: P. aeruginosa strain 81-11963 (VIM-2), compound at ¼ the concentration of the antibiotic, 18 h
Experimental: (§4) Such compounds were expected to enhance the potency of a clinically useful β-lactam antibiotic against clinical isolates of human pathogenic bacteria which are highly resistant to β-lactam antibiotics. Certain β-lactamase inhibitors were tested to determine whether or not they would have a synergistic effect on the antibacterial activity of pipericillin against β-lactam antibiotic resistant bacterial clinical isolates using the Agar Dilution Method.
(§5) Bacterial colonies were taken from overnight blood agar plates, and sterile saline was inoculated to make a 0.5 McFarland suspension inoculum and further diluted such that the 10^4 CFU spots were delivered to the MHA (Oxoid) surface. Inhibitor samples were dissolved in DMSO and administered at a pipericillin:compound ratio of 4:1 (wt/wt). The plates were incubated at 35° C. and read after 18 h of incubation. MICs were measured by agar dilution on Mueller-Hinton II agar (BD Microbiology Systems, Cockeysville, Md., USA), as recommended by the NCCLS (National Committee for Clinical Laboratory Standards. (2003).Performance Standards for Antimicrobial Susceptibility Testing.)

[2] = system: Stenotrophomonas maltophilia strain 92-00626 (produces metallo β-lactamase L1); test: Agar dilution MIC, synergy with pipericillin, S. maltophilia; format: cell-based; details: S. maltophilia strain 92-00626 (L1), compound at ¼ the concentration of the antibiotic, 18 h
Experimental: as §4, §5

[3] = nitrocefin 100 μM, 100 mM Na Phosphate/25 mM NaCO3 pH 7.0, read-out: IC50 (μM) class D OXA-45

T3 sequence (P14489 20-266): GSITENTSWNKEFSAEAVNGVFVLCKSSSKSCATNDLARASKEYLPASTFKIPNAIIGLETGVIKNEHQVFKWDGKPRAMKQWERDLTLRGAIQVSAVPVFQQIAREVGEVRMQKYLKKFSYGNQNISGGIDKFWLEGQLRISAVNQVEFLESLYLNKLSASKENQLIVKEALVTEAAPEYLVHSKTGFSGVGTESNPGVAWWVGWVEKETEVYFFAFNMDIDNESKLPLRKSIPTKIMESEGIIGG
Sequence of OXA-45 (Q7WZC7 entry or part of it): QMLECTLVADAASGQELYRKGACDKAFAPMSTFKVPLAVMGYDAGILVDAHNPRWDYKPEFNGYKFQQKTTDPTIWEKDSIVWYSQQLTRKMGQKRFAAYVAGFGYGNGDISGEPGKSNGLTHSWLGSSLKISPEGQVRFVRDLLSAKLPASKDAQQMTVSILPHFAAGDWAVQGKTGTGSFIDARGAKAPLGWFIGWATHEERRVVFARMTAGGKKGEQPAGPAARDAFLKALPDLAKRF
T1 sequence (P52699 19-246 limits assumed): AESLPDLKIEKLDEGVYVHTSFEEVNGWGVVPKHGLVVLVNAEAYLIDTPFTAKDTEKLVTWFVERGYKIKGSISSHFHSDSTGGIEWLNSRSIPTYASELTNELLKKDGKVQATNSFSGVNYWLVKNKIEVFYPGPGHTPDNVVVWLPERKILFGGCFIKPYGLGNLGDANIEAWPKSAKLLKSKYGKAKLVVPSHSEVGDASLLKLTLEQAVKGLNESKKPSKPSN

SMILES	IC50 (IMP-1)	IC50 (VIM-2)	IC50 (OXA-10)	IC50 (OXA-45; [3])	inhibition of IMP-1 (in words) (IMP-1)	inhibition of VIM-2 (in words) (VIM-2)	inhibition of OXA-10 (in words) (OXA-10)	inhibition of OXA-45 (in words) (OXA-45)	IC50 (OXA-45)	diminution in the MIC value found for pipericillin [1]	diminution in the MIC value found for pipericillin [2]
O=C(N/N=C/c1ccccc1O)c1ccncc1 [Compound 14, N′-(2-Hydroxybenzylidene)isonicotinohydrazide]	> 100 µM	> 100 µM	> 100 µM	> 100 µM							
CC(C)(C)c1ccc(C(=O)N/N=C/c2c(O)ccc3ccccc23)cc1 [Compound 4, 4-t-Butyl-N′-((2-hydroxynaphthalen-1-yl)methylene)benzohydrazide]	3 µM	9 µM	1.7 µM	1.7 µM	inhibited	inhibited	inhibited	inhibited			
CC(C)(C)c1ccc(C(=O)N/N=C/c2cccc(Oc3ccccc3)c2)cc1 [Compound 8, 4-t-Butyl-N′-(3-phenoxybenzylidene)benzohydrazide]	6.7 µM	23.9 µM	10.3 µM						4.3 µM		
O=C(N/N=C/c1ccccc1O)c1cc2ccccc2cc1O [Compound 3, 3-Hydroxy-N′-(2-hydroxybenzylidene)-2-naphthohydrazide]	8.3 µM	18.2 µM	3.9 µM	0.25 µM	inhibited	inhibited	inhibited	inhibited		greater than 4 fold	
CC(C)(C)c1ccc(C(=O)N/N=C/c2ccccc2[N+](=O)[O-])cc1 [Compound 12, 4-t-Butyl-N′-(2-nitrobenzylidene)benzohydrazide]	> 10 µM	> 10 µM	> 10 µM	> 10 µM							
CC(C)(C)c1ccc(C(=O)N/N=C/c2ccc3c(c2)OCO3)cc1 [Compound 11, N′-(Benzo[d][1,3]dioxol-5-ylmethylene)-4-t-butylbenzohydrazide]	> 10 µM	> 10 µM	> 10 µM						> 10 µM		
CC(C)(C)c1ccc(C(=O)N/N=C/c2ccccc2O)cc1 [Compound 5, 4-t-Butyl-N′-(2-hydroxybenzylidene)benzohydrazide]	9 µM	18 µM	12.8 µM	28 µM	inhibited	inhibited	inhibited	inhibited			greater than 4 fold
O=C(N/N=C/c1c2ccccc2cc2ccccc12)c1cc2ccccc2cc1O [Compound 6, N′-(Anthracen-9-ylmethylene)-3-hydroxy-2-naphthohydrazide]	1.02 µM	12.3 µM	2.8 µM	0.57 µM							
CC(C)(C)c1ccc(C(=O)N/N=C/c2c3ccccc3cc3ccccc23)cc1 [Compound 1, N′-(Anthracen-9-ylmethylene)-4-t-butylbenzohydrazide]	0.9 µM and 0.91 µM										
CC(C)(C)c1ccc(C(=O)N/N=C/c2ccccc2OCc2ccccc2)cc1 [Compound 10, N′-(2-(Benzyloxy)benzylidene)-4-t-butylbenzohydrazide]	4.7 µM	> 10 µM	> 10 µM	> 10 µM							
O=C(N/N=C/c1ccccc1O)c1ccccc1O [Compound 15, 2-Hydroxy-N′-(2-hydroxybenzylidene)benzohydrazide]	> 40 µM	> 40 µM	> 40 µM	> 40 µM							
O=C(N/N=C/c1cccc(Oc2ccccc2)c1)c1cc2ccccc2cc1O [Compound 7, 3-Hydroxy-N-(3-phenoxybenzylidene)-2-naphthohydrazide]	7 µM	8.5 µM	1.8 µM						0.56 µM		
O=C(N/N=C/c1ccccc1O)c1cccnc1 [Compound 13, N′-(2-Hydroxybenzylidene)nicotinohydrazide]	> 100 µM	> 100 µM	> 100 µM						> 100 µM		
O=C(N/N=C/c1ccccc1O)c1ccc2ccccc2c1 [Compound 2, N′-(2-Hydroxybenzylidene)-2-naphthohydrazide]	38.3 µM	35.1 µM	15.2 µM		inhibited	inhibited	inhibited	inhibited	1.8 µM		
